{"source": "paper PMC10056257", "about": "(Journal of medicinal chemistry, 2023)", "key": {"S. aureus USA 300 JE2": {"tested_on": "S. aureus USA 300 JE2", "assay": "MIC, broth microdilution", "format": "cell-based, Staphylococcus aureus"}, "[1]": {"tested_on": "Acinetobacter baumannii 2208", "assay": "MIC, broth microdilution", "format": "cell-based", "details": "A. baumannii 2208"}, "Escherichia coli K12": {"tested_on": "Escherichia coli K12", "assay": "MIC, broth microdilution", "format": "cell-based", "details": "E. coli K12"}, "[2]": {"tested_on": "Pseudomonas aeruginosa PA01", "assay": "MIC, broth microdilution", "format": "cell-based", "details": "P. aeruginosa PA01"}, "[3]": {"tested_on": "E. coli nonpathogenic ATCC MG1655", "assay": "MIC determination", "format": "cell-based, Escherichia coli"}, "[4]": {"tested_on": "Lactobacillus rhamnosus CGMCC 1.3724", "assay": "MIC against L. rhamnosus", "format": "cell-based", "details": "L. rhamnosus CGMCC 1.3724"}, "[5]": {"tested_on": "Lactobacillus plantarum DSM 20174", "assay": "MIC against L. plantarum", "format": "cell-based", "details": "L. plantarum DSM 20174"}, "[6]": {"tested_on": "Bacteroides thetaiotaomicron DSM 2079", "assay": "MIC against anaerobic bacteria", "format": "cell-based", "details": "B. thetaiotaomicron DSM 2079, anaerobic"}, "[7]": {"tested_on": "Anaerostipes caccae DSM 14662", "assay": "MIC against anaerobic bacteria", "format": "cell-based", "details": "A. caccae DSM 14662, anaerobic"}, "[8]": {"assay": "Simulated intestinal fluid stability", "format": "in vitro ADME", "details": "SIF pH 7.60 with pancreatin, 24 h"}, "[9]": {"tested_on": "Methicillin-resistant S. aureus (MRSA) ClpX", "details": "read-out: IC50, ClpX ATPase activity; cited from earlier work"}, "S. typhimurium TA100": {"tested_on": "S. typhimurium TA100", "details": "positive control, TA100, S9−, 2.5 μg/plate"}}, "note": "pIC50: −log10 of the molar value. Marks after values point to notes of the source that are not given here."}
{"molecule": "N#Cc1ccccc1C1Sc2ccccc2NC2=C1C(=O)c1ccccc12", "note": "(stereo not shown) [5a, 2-(12-Oxo-11,12-dihydro-5H-benzo[b]indeno[1,2-e][1,4]thiazepin-11-yl)benzonitrile]", "values": [{"measurement": "MIC", "setting": "S. aureus USA 300 JE2", "value": "inactive"}, {"measurement": "MIC", "setting": "[1]", "value": "inactive"}, {"measurement": "MIC", "setting": "Escherichia coli K12", "value": "inactive"}, {"measurement": "MIC", "setting": "[2]", "value": "inactive"}, {"measurement": "MIC", "setting": "[3]", "value": "completely inactive"}, {"measurement": "MIC", "setting": "[4]", "value": "no antibacterial activity"}, {"measurement": "MIC", "setting": "[5]", "value": "no antibacterial activity"}, {"measurement": "MIC", "setting": "[6]", "value": "completely inactive"}, {"measurement": "MIC", "setting": "[7]", "value": "completely inactive"}, {"measurement": "percentage of drug remaining", "setting": "[8]", "value": "around 85%"}]}
{"molecule": "CC[C@H]1OC(=O)[C@H](C)[C@@H](O[C@H]2C[C@@](C)(OC)[C@@H](O)[C@H](C)O2)[C@H](C)[C@@H](O[C@@H]2O[C@H](C)C[C@H](N(C)C)[C@H]2O)[C@](C)(O)C[C@@H](C)CN(C)[C@H](C)[C@@H](O)[C@]1(C)O", "note": "[AZM, azithromycin, reference compound]", "values": [{"measurement": "MIC", "setting": "[7]", "value": "no susceptibility"}]}
{"molecule": "O=C1C2=C(Nc3ccccc3SC2c2cccc(O)c2)c2ccccc21", "note": "(stereo not shown) [compound 334, 11-(3-Hydroxyphenyl)-5,11-dihydro-12H-benzo[b]indeno[1,2-e][1,4]thiazepin-12-one]", "values": [{"measurement": "pIC50", "setting": "[9]", "value": 6.10}]}
{"molecule": "Sodium azide", "values": [{"measurement": "number of revertants/plate", "setting": "S. typhimurium TA100", "value": "260.70 ± 15.30^e revertants/plate"}]}
